Experimental findings from patent US20240317780A1, “RADIOPHARMACEUTICAL SOMATOSTATIN RECEPTOR LIGANDS AND PRECURSORS THEREOF” (Technische Universität München, priority 2021, published 2024) are described below.

A short description of data set [1]: Octanol-water distribution coefficient (logD pH 7.4) of the labeled tracer. Format: physicochemical. As to conditions: n-octanol/PBS pH 7.4, room temperature. As to the method: Approximately 1 MBq of the labeled tracer was dissolved in 1 mL of a 1:1 mixture (by volumes) of phosphate buffered saline (PBS, pH 7.4) and n-octanol in an Eppendorf tube. After vigorous mixing of the suspension for 3 minutes at room temperature, the vial was centrifuged at 15000 g for 5 minutes (Biofuge 15, Heraus Sepatech, Osterode, Germany) and 100 μL aliquots of both layers were measured in a gamma counter. The experiment was repeated at least six times.

The target of data set [2] is HSA (Homo sapiens, UniProt P02768). The data set is described as follows: HSA binding by RIAC method (gel filtration, apparent molecular weight). It is filed as in vitro ADME. Conditions: HSA binding as apparent molecular weight, 700 μM HSA in PBS mobile phase. How it is done:
A gel filtration column Superdex 75 Increase 10/300 GL (GE Healthcare, Uppsala, Sweden) was beforehand calibrated following the producer's recommendations with a commercially available gel filtration calibration kit (GE Healthcare, Buckinghamshire, UK) comprising conalbumin (MW: 75 kDa), ovalbumin (44 kDa), carbonic anhydrase (29 kDa), ribonuclease A (13.7 kDa) and aprotinin (6.5 kDa) as reference proteins of known molecular weight. AMSEC experiments were conducted using a constant flow rate of 0.8 mL/min at rt. A solution of HSA in PBS at physiological concentration (700 μM) was used as the mobile phase. SST2 ligands were labelled as described with molar activities of 10-20 GBq/μmol. Probes of 1.0 MBq of the radioligand were injected directly from the labelling solution. HSA binding was expressed as an apparent molecular weight MW calculated from the retention time of the radioligand using the determined calibration curve.
For evaluation, experimentally determined retention times tR are first converted into elution volumes Ve by multiplying with the flow rate and thereafter converted into partition coefficients Kav following the equation
where V0 is the column void volume (8.027 mL) and Vc is the geometric column volume (24 mL). Using the equation given by the trend line plot of the column calibration
the apparent molecular weight MW is calculated as […]
In general terms: SEC sorts molecules by how far they enter the pores of the column.

Structures are written as SMILES.

Chain of HSA (P02768 25-609): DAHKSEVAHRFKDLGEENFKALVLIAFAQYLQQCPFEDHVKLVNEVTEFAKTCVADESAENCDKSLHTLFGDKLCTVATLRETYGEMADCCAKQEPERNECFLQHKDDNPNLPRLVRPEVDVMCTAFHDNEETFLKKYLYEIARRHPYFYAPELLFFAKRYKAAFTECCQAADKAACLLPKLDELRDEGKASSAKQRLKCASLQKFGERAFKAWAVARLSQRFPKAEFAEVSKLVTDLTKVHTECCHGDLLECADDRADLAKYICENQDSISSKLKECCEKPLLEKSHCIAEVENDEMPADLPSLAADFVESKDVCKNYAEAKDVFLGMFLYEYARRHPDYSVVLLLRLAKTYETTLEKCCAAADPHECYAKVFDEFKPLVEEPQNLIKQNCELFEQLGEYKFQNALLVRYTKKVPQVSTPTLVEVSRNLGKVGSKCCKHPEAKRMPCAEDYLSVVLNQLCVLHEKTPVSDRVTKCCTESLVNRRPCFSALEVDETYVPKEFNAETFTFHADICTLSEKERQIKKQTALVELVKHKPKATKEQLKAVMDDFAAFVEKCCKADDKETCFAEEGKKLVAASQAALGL

As to `C[C@@H](O)[C@H](NC(=O)C1CSSCC(NC(=O)C(Cc2ccccc2)NC(=O)CNC(=O)CNC(=O)CNC(=O)C(CC(=O)O)NC(=O)[C@@H](CC(=O)O)NC(=O)C(CNC(=O)CN2CCN(CC(=O)O)CCN(CC(=O)O)CCN(CC(=O)O)CC2)NC(=O)[C@@H](CN)NC(=O)CNC(=O)CNC(=O)C[N+](C)(C)Cc2ccc([Si](F)(C(C)(C)C)C(C)(C)C)cc2)C(=O)N[C@@H](Cc2ccc(O)cc2)C(=O)NC(Cc2c[nH]c3ccccc23)C(=O)N[C@@H](CCCCN)C(=O)N[C@@H]([C@@H](C)O)C(=O)N1)C(=O)O` (stereo partly shown) [[Ga]53], the “LogDpH=7.4” value in data set [1] is listed as −1.96 ± 0.01. Also, the HSA in data set [2] worked out at 8.48 kDa.
The corresponding values for `C[C@@H](O)[C@H](NC(=O)C1CSSCC(NC(=O)C(Cc2ccccc2)NC(=O)COCCOCCNC(=O)C(CC(=O)O)NC(=O)[C@@H](CC(=O)O)NC(=O)C(CNC(=O)CN2CCN(CC(=O)O)CCN(CC(=O)O)CCN(CC(=O)O)CC2)NC(=O)[C@@H](CN)NC(=O)c2ccc([Si](F)(C(C)(C)C)C(C)(C)C)cc2)C(=O)N[C@@H](Cc2ccc(O)cc2)C(=O)NC(Cc2c[nH]c3ccccc23)C(=O)N[C@@H](CCCCN)C(=O)N[C@@H]([C@@H](C)O)C(=O)N1)C(=O)O` (stereo partly shown) (natGa complex, metal not drawn) [[Ga]23] are −1.86 ± 0.06 and 18.59 kDa.
The corresponding values for `C[C@@H](O)[C@H](NC(=O)C1CSSCC(NC(=O)C(Cc2ccccc2)NC(=O)CNC(=O)CNC(=O)CNC(=O)C(CC(=O)O)NC(=O)[C@@H](CC(=O)O)NC(=O)C(CNC(=O)CN2CCN(CC(=O)O)CCN(CC(=O)O)CCN(CC(=O)O)CC2)NC(=O)[C@@H](CN)NC(=O)C[N+](C)(C)Cc2ccc([Si](F)(C(C)(C)C)C(C)(C)C)cc2)C(=O)N[C@@H](Cc2ccc(O)cc2)C(=O)NC(Cc2c[nH]c3ccccc23)C(=O)N[C@@H](CCCCN)C(=O)N[C@@H]([C@@H](C)O)C(=O)N1)C(=O)O` (stereo partly shown) [[Lu]51] are −1.71 ± 0.05 and 8.84 kDa.
The like results for `C[C@@H](O)[C@H](NC(=O)C1CSSCC(NC(=O)C(Cc2ccccc2)NC(=O)CNC(=O)CNC(=O)CNC(=O)C(CC(=O)O)NC(=O)[C@@H](CC(=O)O)NC(=O)C(CNC(=O)CN2CCN(CC(=O)O)CCN(CC(=O)O)CCN(CC(=O)O)CC2)NC(=O)[C@@H](CN)NC(=O)CNC(=O)CNC(=O)C[N+](C)(C)Cc2ccc([Si](F)(C(C)(C)C)C(C)(C)C)cc2)C(=O)N[C@@H](Cc2ccc(O)cc2)C(=O)NC(Cc2c[nH]c3ccccc23)C(=O)N[C@@H](CCCCN)C(=O)N[C@@H]([C@@H](C)O)C(=O)N1)C(=O)O` (stereo partly shown) [[Lu]53] were, in that order, −1.74 ± 0.03 and 9.81 kDa.
Consider `C[C@@H](O)[C@H](NC(=O)C1CSSCC(NC(=O)C(Cc2ccccc2)NC(=O)CNC(=O)CNC(=O)CNC(=O)C(CC(=O)O)NC(=O)[C@@H](CC(=O)O)NC(=O)C(CCCNC(N)=O)NC(=O)[C@@H](CNC(=O)C[N+](C)(C)Cc2ccc([Si](F)(C(C)(C)C)C(C)(C)C)cc2)NC(=O)CN2CCN(CC(=O)O)CCN(CC(=O)O)CCN(CC(=O)O)CC2)C(=O)N[C@@H](Cc2ccc(O)cc2)C(=O)NC(Cc2c[nH]c3ccccc23)C(=O)N[C@@H](CCCCN)C(=O)N[C@@H]([C@@H](C)O)C(=O)N1)C(=O)O` (stereo partly shown) [[Ga]46], for which, in data set [1], the “LogDpH=7.4” value is listed as −2.22 ± 0.03. Further, the HSA in data set [2] amounted to 6.81 kDa.
The corresponding values for `C[C@@H](O)[C@H](NC(=O)C1CSSCC(NC(=O)C(Cc2ccccc2)NC(=O)CNC(=O)CNC(=O)CNC(=O)C(CC(=O)O)NC(=O)[C@@H](CC(=O)O)NC(=O)C(CCCCN)NC(=O)[C@@H](CNC(=O)C[N+](C)(C)Cc2ccc([Si](F)(C(C)(C)C)C(C)(C)C)cc2)NC(=O)CN2CCN(CC(=O)O)CCN(CC(=O)O)CCN(CC(=O)O)CC2)C(=O)N[C@@H](Cc2ccc(O)cc2)C(=O)NC(Cc2c[nH]c3ccccc23)C(=O)N[C@@H](CCCCN)C(=O)N[C@@H]([C@@H](C)O)C(=O)N1)C(=O)O` (stereo partly shown) [[Ga]45] are −2.10 ± 0.04 and 7.76 kDa.
The corresponding values for `C[C@@H](O)[C@H](NC(=O)C1CSSCC(NC(=O)C(Cc2ccccc2)NC(=O)[C@@H](CC(N)=O)NC(=O)C(CC(N)=O)NC(=O)CNC(=O)C(CC(=O)O)NC(=O)[C@@H](CC(=O)O)NC(=O)C(CNC(=O)CN2CCN(CC(=O)O)CCN(CC(=O)O)CCN(CC(=O)O)CC2)NC(=O)C[N+](C)(C)Cc2ccc([Si](F)(C(C)(C)C)C(C)(C)C)cc2)C(=O)N[C@@H](Cc2ccc(O)cc2)C(=O)NC(Cc2c[nH]c3ccccc23)C(=O)N[C@@H](CCCCN)C(=O)N[C@@H]([C@@H](C)O)C(=O)N1)C(=O)O` (stereo partly shown) [[Ga]49] are −2.16 ± 0.03 and 7.26 kDa.
On to `C[C@@H](O)[C@H](NC(=O)C1CSSCC(NC(=O)C(Cc2ccccc2)NC(=O)CNC(=O)CNC(=O)CNC(=O)C(CC(=O)O)NC(=O)[C@@H](CC(=O)O)NC(=O)C(CNC(=O)CN2CCN(CC(=O)O)CCN(CC(=O)O)CCN(CC(=O)O)CC2)NC(=O)C[N+](C)(C)Cc2ccc([Si](F)(C(C)(C)C)C(C)(C)C)cc2)C(=O)N[C@@H](Cc2ccc(O)cc2)C(=O)NC(Cc2c[nH]c3ccccc23)C(=O)N[C@@H](CCCCN)C(=O)N[C@@H]([C@@H](C)O)C(=O)N1)C(=O)O` (stereo partly shown) [[Lu]50], for which the “LogDpH=7.4” value in data set [1] is recorded as −1.79 ± 0.02. Besides, the HSA in data set [2] came out at 8.17 kDa.
In the case of `C[C@@H](O)[C@H](NC(=O)C1CSSCC(NC(=O)C(Cc2ccccc2)NC(=O)CNC(=O)CNC(=O)[C@@H](CC(=O)O)NC(=O)C(CC(=O)O)NC(=O)[C@@H](CNC(=O)CC[C@H](C(=O)O)N2CCN(CC(=O)O)CCN(CC(=O)O)CCN(CC(=O)O)CC2)NC(=O)C(CN)NC(=O)c2ccc([Si](F)(C(C)(C)C)C(C)(C)C)cc2)C(=O)N[C@@H](Cc2ccc(O)cc2)C(=O)NC(Cc2c[nH]c3ccccc23)C(=O)N[C@@H](CCCCN)C(=O)N[C@@H]([C@@H](C)O)C(=O)N1)C(=O)O` (stereo partly shown) [[Lu]20], the “LogDpH=7.4” value in data set [1] was −2.35 ± 0.04. In data set [2], the HSA was found to be 18.76 kDa.
The like results for `C[C@@H](O)[C@H](NC(=O)C1CSSCC(NC(=O)C(Cc2ccccc2)NC(=O)CNC(=O)CNC(=O)CNC(=O)C(CC(=O)O)NC(=O)[C@@H](CC(=O)O)NC(=O)C(CNC(=O)CN2CCN(CC(=O)O)CCN(CC(=O)O)CCN(CC(=O)O)CC2)NC(=O)[C@@H](CN)NC(=O)CNC(=O)C[N+](C)(C)Cc2ccc([Si](F)(C(C)(C)C)C(C)(C)C)cc2)C(=O)N[C@@H](Cc2ccc(O)cc2)C(=O)NC(Cc2c[nH]c3ccccc23)C(=O)N[C@@H](CCCCN)C(=O)N[C@@H]([C@@H](C)O)C(=O)N1)C(=O)O` (stereo partly shown) [[Ga]52] were, in that order, −2.00 ± 0.02 and 7.82 kDa.
The corresponding values for `C[C@@H](O)[C@H](NC(=O)C1CSSCC(NC(=O)C(Cc2ccccc2)NC(=O)CNC(=O)CNC(=O)CNC(=O)C(CC(=O)O)NC(=O)[C@@H](CC(=O)O)NC(=O)C(CNC(=O)CN2CCN(CC(=O)O)CCN(CC(=O)O)CCN(CC(=O)O)CC2)NC(=O)C[N+](C)(C)Cc2ccc([Si](F)(C(C)(C)C)C(C)(C)C)cc2)C(=O)N[C@@H](Cc2ccc(O)cc2)C(=O)NC(Cc2c[nH]c3ccccc23)C(=O)N[C@@H](CCCCN)C(=O)N[C@@H]([C@@H](C)O)C(=O)N1)C(=O)O` (stereo partly shown) [[Ga]50] are −2.00 ± 0.12 and 8.18 kDa.
The corresponding values for `C[C@@H](O)[C@H](NC(=O)C1CSSCC(NC(=O)C(Cc2ccccc2)NC(=O)CNC(=O)CNC(=O)CNC(=O)C(CC(=O)O)NC(=O)[C@@H](CC(=O)O)NC(=O)C(CNC(=O)CN2CCN(CC(=O)O)CCN(CC(=O)O)CCN(CC(=O)O)CC2)NC(=O)[C@@H](CN)NC(=O)C[N+](C)(C)Cc2ccc([Si](F)(C(C)(C)C)C(C)(C)C)cc2)C(=O)N[C@@H](Cc2ccc(O)cc2)C(=O)NC(Cc2c[nH]c3ccccc23)C(=O)N[C@@H](CCCCN)C(=O)N[C@@H]([C@@H](C)O)C(=O)N1)C(=O)O` (stereo partly shown) [[Ga]51] are −1.97 ± 0.01 and 8.71 kDa.
As to `C[C@@H](O)[C@H](NC(=O)C1CSSCC(NC(=O)C(Cc2ccccc2)NC(=O)CNC(=O)CNC(=O)CNC(=O)C(CC(=O)O)NC(=O)[C@@H](CC(=O)O)NC(=O)C(CNC(=O)CN2CCN(CC(=O)O)CCN(CC(=O)O)CCN(CC(=O)O)CC2)NC(=O)[C@@H](CN)NC(=O)CNC(=O)C[N+](C)(C)Cc2ccc([Si](F)(C(C)(C)C)C(C)(C)C)cc2)C(=O)N[C@@H](Cc2ccc(O)cc2)C(=O)NC(Cc2c[nH]c3ccccc23)C(=O)N[C@@H](CCCCN)C(=O)N[C@@H]([C@@H](C)O)C(=O)N1)C(=O)O` (stereo partly shown) [[Lu]52], in data set [1], the “LogDpH=7.4” value was −1.88 ± 0.05. In addition, the HSA in data set [2] turned out to be 8.47 kDa.
As for `C[C@@H](O)[C@H](NC(=O)C1CSSCC(NC(=O)C(Cc2ccccc2)NC(=O)CNC(=O)CNC(=O)[C@@H](CC(=O)O)NC(=O)C(CC(=O)O)NC(=O)[C@@H](CNC(=O)CC[C@H](C(=O)O)N2CCN(CC(=O)O)CCN(CC(=O)O)CCN(CC(=O)O)CC2)NC(=O)C(CN)NC(=O)c2ccc([Si](F)(C(C)(C)C)C(C)(C)C)cc2)C(=O)N[C@@H](Cc2ccc(O)cc2)C(=O)NC(Cc2c[nH]c3ccccc23)C(=O)N[C@@H](CCCCN)C(=O)N[C@@H]([C@@H](C)O)C(=O)N1)C(=O)O` (stereo partly shown) [[Ga]20], the “LogDpH=7.4” value in data set [1] is listed as −2.16 ± 0.04. In addition, the HSA in data set [2] is on record as 21.49 kDa.
